The values below come from publication PMC9374667 (Communications Biology, 2022).

In one series the test system is db/db mice. Kind of series: Spontaneous motor activity (CLAMS, infrared beam breaks). To be noted: BBR 150mg/kg, individual mice 1-6. The format is in vivo. The protocol:
At week 5 of treatment, basal metabolic parameters of mice were measured using the Comprehensive Lab Animal Monitoring System (CLAMS, Columbus Instruments, Columbus, OH). […] The number of times the infrared beams were broken along the X- or Y-axis was used to measure the dynamic activity of mice. The respiratory exchange rate (RER) was calculated using classical Lusk theory and equations RER = VCO2/VO2.

For series [1] the following is noted: no reference given; cited from earlier work.
Series [2] is described as follows: In vivo pharmacokinetics studies after gavage. The conditions noted are these: male, SD, rat, plasma, po. Here is the method: The pharmacokinetic parameters were calculated by the statistical moment method of non-atrioventricular model.
Blood samples (0.5 mL) were collected from the retro-orbital venous plexus at appropriate time points and placed in collection tubes with anticoagulants. Plasma was obtained from the blood samples by centrifuged (4000 rpm, 10 min, 4 °C) and stored at −20 °C until analysis. 400 µL of acetonitrile was added to 200 µL of rat plasmas, and vortexed for 90 s and finally centrifuged at 12,000 rpm for about 10 min. 20 µL of the supernatant was used to determinate the concentration of berberine in plasma by using the liquid chromatography-mass spectrometry (Waters XBridge, Waters, USA).
The maximum peak concentration (Cmax) and the time of reaching Cmax (Tmax) can be obtained from the measured data. The area under the concentration-time curve (AUC0→t) was estimated by the trapezoidal summation. The area under the curve from time zero to infinity (AUC0→∞) was also determined..

For a further series, the target named is T1, TBK1 (Mus musculus, UniProt Q9WUN2).
T1 sequence (Q9WUN2 1-729): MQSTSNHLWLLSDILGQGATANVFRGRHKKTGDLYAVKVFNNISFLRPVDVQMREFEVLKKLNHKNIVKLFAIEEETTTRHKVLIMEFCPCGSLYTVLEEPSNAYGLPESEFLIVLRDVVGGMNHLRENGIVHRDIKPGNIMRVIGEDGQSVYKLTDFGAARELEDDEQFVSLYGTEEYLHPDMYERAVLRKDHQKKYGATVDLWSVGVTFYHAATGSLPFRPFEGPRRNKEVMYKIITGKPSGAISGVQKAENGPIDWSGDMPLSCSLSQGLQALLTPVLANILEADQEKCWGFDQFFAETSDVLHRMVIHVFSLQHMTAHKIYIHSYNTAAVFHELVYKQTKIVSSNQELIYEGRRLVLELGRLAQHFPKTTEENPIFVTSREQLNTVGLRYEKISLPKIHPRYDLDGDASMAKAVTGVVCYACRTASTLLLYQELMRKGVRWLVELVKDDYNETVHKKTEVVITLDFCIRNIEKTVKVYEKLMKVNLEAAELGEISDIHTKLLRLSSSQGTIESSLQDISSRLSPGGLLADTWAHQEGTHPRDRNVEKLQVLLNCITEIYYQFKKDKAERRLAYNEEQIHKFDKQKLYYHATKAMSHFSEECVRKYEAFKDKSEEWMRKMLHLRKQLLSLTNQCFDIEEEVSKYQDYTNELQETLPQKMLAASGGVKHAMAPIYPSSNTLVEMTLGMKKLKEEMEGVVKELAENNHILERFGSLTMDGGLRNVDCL
Briefly: 3T3-L1 adipocytes transfected with TBK1 plasmid (western blotting, immunofluorescence). The format is cell-based, Murine. More on the design: host or cells: differentiated 3T3-L1 adipocytes (Lipofectamine 2000); TBK1 (western blotting, Figure 8a) / p-TBK1 (western blotting, Figure 8b) / p-AMPKα (western blotting, Figure 8c) / UCP1 (western blotting, Figure 8d): scale not given here. The conditions noted are these: for Mean Intensity: 2μg TBK1 + 10μM BJ, individual replicates. Here is the method:
[…] The 3T3-L1 adipocytes were washed with PBS for 3 times, fixed with 4% paraformaldehyde solution for 30 min, and then washed again for 3 times. […] The cells were then incubated overnight at 4 °C with the appropriate primary antibodies (1:100 dilution). The next day, the 3T3-L1 adipocytes were washed and incubated at room temperature with goat anti-rabbit secondary antibody or goat anti-mouse secondary antibody (1:1000 dilution) for 2 h and washed with PBS for 3 times. The nuclei were stained with DAPI. […] Fluorescence images were taken using a laser confocal microscope (SP8, Leica, Germany). At least four images per section were acquired for quantification, and the mean intensity were evaluated using ImageJ. The adipose tissue or 3T3-L1 adipocytes were homogenized by ultrasound in an ice-cold RIPA lysis buffer containing 1% PMSF and centrifuged at 12,000 × g at 4°C for 15 min to collect the supernatant. The BCA protein assay kit (Beyotime, Shanghai, China) was used to detect the total protein concentration. Proteins (20-30 μg) of the sample were separated by 10% SDS-PAGE gel and transferred onto polyvinylidene difluoride (PVDF) membranes. Then the PVDF membranes were blocked in 5% skim milk powder in TBS containing 1% Tween-20 (TBST) for 2 h at room temperature and washed with TBST for 3 times. […] After washing, the membranes were incubated with horseradish peroxidase-conjugated secondary antibodies (in 5% skim milk powder) for 1 h at room temperature. Finally, the membranes were treated with enhanced chemiluminescence agents (Tanon, Shanghai, China) and the signals were monitored using the Tanon 5200 multi chemiluminescent imaging system (Tanon, Shanghai, China).
A general note: In western blotting, separated proteins are transferred to a membrane and probed.

Where [3] appears, read: 3T3-L1 adipocytes transfected with TBK1 plasmid, 10 μM BJ, vs TBK1 transfection.

Structures are written as SMILES. Where “and” joins values, the source holds several entries; their conditions need not be identical. Equal entries are not always repeated.

In general, Tmax refers to the time from dosing to the highest level.

In the case of `COc1ccc2cc3[n+](cc2c1OC)CCc1cc2c(cc1-3)OCO2` [BBR, Berberine chloride dihydrate], the “Spontaneous motor activity (Figure 3j)” value is 453.5 and 1366 and 855.5 and 150 and 210.5 and 798 with db/db mice (TIME 09:00:00); 578.5 and 328 and 167.5 and 335.5 and 115 and 382 in the series on db/db mice (TIME 10:00:00); 144.5 and 288.5 and 281.5 and 646 and 886.5 and 449 in the series on db/db mice (TIME 11:00:00); 559 and 373.5 and 450.5 and 378.5 and 424.5 and 29.5 in the series with db/db mice (TIME 12:00:00); 620.5 and 553.5 and 835.5 and 411 and 498 and 330 in the series on db/db mice (TIME 13:00:00); 823.5 and 171 and 498 and 447 and 397.5 and 455 in the series with db/db mice (TIME 14:00:00). Moreover, the “Spontaneous motor activity (Figure 3j)” value in the series on db/db mice (TIME 15:00:00) is 870 and 677.5 and 611.5 and 326 and 849.5 and 246; in the series on db/db mice (TIME 16:00:00), 482.5 and 647.5 and 365.5 and 416.5 and 803.5 and 105; in the series with db/db mice (TIME 17:00:00), 814 and 1029.5 and 535.5 and 427.5 and 177.5 and 328; in the series with db/db mice (TIME 18:00:00) it was 694 and 351 and 1055.5 and 323.5 and 1331.5 and 362; in the series with db/db mice (TIME 19:00:00) it was 242 and 551.5 and 453.5 and 327.5 and 706.5 and 367; in the series on db/db mice (TIME 20:00:00) it was 34.5 and 1152.5 and 475 and 298.5 and 432.5 and 477. In addition, the “Spontaneous motor activity (Figure 3j)” value is 863 and 737 and 845.5 and 99.5 and 506 and 314 in the series on db/db mice (TIME 21:00:00); 320.5 and 467 and 701 and 142 and 156 and 371.5 with db/db mice (TIME 22:00:00); 428.5 and 928 and 390.5 and 869 and 897 and 315.5 in the series with db/db mice (TIME 23:00:00); 479.5 and 494 and 426 and 899 in the series with db/db mice (TIME 1900-01-01 01:00:00); 542.5 and 374 and 305.5 and 238 and 658 and 526 in the series on db/db mice (TIME 1900-01-01). Further, the Oral bioavailability entry in series [1] is reported as “below 1%”. Also, the Tmax in series [2] is 30 ± 4.8 min.

For the molecule `CC(C)Cc1ccc(C(C)C(=O)[O-])cc1.COc1ccc2cc3[n+](cc2c1OC)CCc1cc2c(cc1-3)OCO2.O.O.O.O` [BJ, berberine-ibuprofen], on TBK1 (2μg TBK1+10μM BJ), the “TBK1 (western blotting, Figure 8a)” value was 0.5408 and 0.448 and 0.5761; the “UCP1 (western blotting, Figure 8d)” value is 0.7389 and 0.5561 and 0.5877; the “p-AMPKα (western blotting, Figure 8c)” value was 0.3928 and 0.3723 and 0.348; the “p-TBK1 (western blotting, Figure 8b)” value is 0.5922 and 0.4 and 0.4766. Moreover, on TBK1 (10μM BJ), the “TBK1 (western blotting, Figure 8a)” value is 0.38 and 0.387 and 0.3646; the “UCP1 (western blotting, Figure 8d)” value was 0.5655 and 0.6018 and 0.6331; the “p-AMPKα (western blotting, Figure 8c)” value was 0.4524 and 0.4108 and 0.3523; the “p-TBK1 (western blotting, Figure 8b)” value was 0.5028 and 0.4045 and 0.6995. For the same molecule, on TBK1 (3T3-L1 adipocytes transfected with TBK1 plasmid, 10 μM BJ), the “Phosphorylation of TBK1 at Ser172” value is listed as “increased the phosphorylation of TBK1 at Ser172”. Also, on TBK1 (setting [3]), the “Phosphorylation of AMPKα Thr172 and UCP1 protein levels” value is “increased the phosphorylation of AMPKα Thr172 and increased the UCP1 protein levels”; the TBK1 protein levels entry is on record as “markedly reduced the TBK1 protein levels”. In addition, the “Mean Intensity” value at TBK1 (Figure S11c) is 20.873 A.U. and 18.04 A.U. and 17.203 A.U. and 19.263 A.U. and 18.463 A.U. and 18.776 A.U. and 23.056 A.U. and 11.015 A.U. and 23.907 A.U. and 21.41 A.U. and 21.836 A.U. and 20.009 A.U. Further, the “Mean Intensity” value at TBK1 (Figure S11g) was 11.659 A.U. and 7.08 A.U. and 13.692 A.U. and 12.377 A.U. and 10.165 A.U. and 17.942 A.U. and 13.51 A.U. and 14.616 A.U. and 14.87 A.U. and 10.529 A.U. and 9.155 A.U. and 10.462 A.U. Also, the “Mean Intensity” value on TBK1 (Figure S11d) was 20.305 A.U. and 17.417 A.U. and 18.699 A.U. and 21.221 A.U. and 16.857 A.U. and 15.382 A.U. and 18.398 A.U. and 14.495 A.U. and 16.691 A.U. and 21.635 A.U. and 11.895 A.U. and 12.802 A.U. Moreover, the “Mean Intensity” value on TBK1 (sheet Figure S11h) was 18.036 A.U. and 17.064 A.U. and 12.941 A.U. and 17.572 A.U. and 15.135 A.U. and 12.981 A.U. and 16.45 A.U. and 12.776 A.U. and 13.679 A.U. and 13.503 A.U. and 12.749 A.U. and 17.882 A.U.
